The test addresses PD-1/PD-L1 (Homo sapiens (Human), UniProt Q9NZQ7). Kind of test: PD-1/PD-L1 biochemical protein-protein interaction assay (ALPHA). Conditions: 0.3 nM His tagged PD-L1, 2.5 nM biotinylated Fc-PD-1, 60 minutes at 25° C., read-out: IC50 PD-L1-PD1.

PD-1/PD-L1, sequence (Q9NZQ7 19-238): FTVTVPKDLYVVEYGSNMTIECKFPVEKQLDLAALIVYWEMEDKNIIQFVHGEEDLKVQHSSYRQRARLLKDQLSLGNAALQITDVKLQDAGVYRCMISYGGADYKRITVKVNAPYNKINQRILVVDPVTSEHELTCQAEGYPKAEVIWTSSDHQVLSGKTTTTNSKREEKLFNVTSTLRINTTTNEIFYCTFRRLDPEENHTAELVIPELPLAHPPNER

As usually defined, the IC50 is the concentration needed to halve the response being measured. On to `COC[C@@H]1CCN1Cc1ncc(-c2cccc(-c3cccc(-c4cnc(CNC[C@@H]5CCC(=O)N5)c(OC)n4)c3Cl)c2Cl)nc1OC` [compound 310], for which the 50% inhibitory concentration (IC50) was determined as 0.216 nM.

`COc1nc(-c2cccc(-c3cccc(-c4cnc(CNC[C@@H]5CCC(=O)N5)c(OC)n4)c3Cl)c2Cl)cnc1CNCC1CS(=O)(=O)C1` [compound 311]: the IC50 worked out at 0.24 nM.

Turning to `COc1nc(-c2cccc(-c3cccc(-c4cnc(CN5C[C@H]6CC(=O)N[C@H]6C5)c(OC)n4)c3Cl)c2Cl)cnc1CNC[C@@H]1CCC(=O)N1` [compound 312], the half-inhibitory concentration (IC50) was found to be 0.295 nM.

With `COc1nc(-c2cccc(-c3cccc(-c4cnc(CNC[C@@H]5CCC(=O)N5)c(OC)n4)c3Cl)c2Cl)cnc1CNCC[C@H]1CCC(=O)N1` [compound 314], the IC50 stood at 0.142 nM.

In the case of `COc1nc(-c2cccc(-c3cccc(-c4cnc([C@@H](C)N)c(OC)n4)c3Cl)c2Cl)cnc1CNC[C@@H]1CCC(=O)N1` [compound 315], the concentration for half-maximal inhibition (IC50) stood at 0.18 nM.

Regarding `COc1nc(-c2cccc(-c3cccc(-c4cnc([C@H](C)N)c(OC)n4)c3Cl)c2Cl)cnc1CNC[C@@H]1CCC(=O)N1` [compound 316], the IC50 was found to be 0.17 nM.

On to `COc1nc(-c2cccc(-c3cccc(-c4cnc(CN[C@@H](C)[C@H]5CCC(=O)N5)c(OC)n4)c3Cl)c2Cl)cnc1CN[C@@H](C)[C@H]1CCC(=O)N1` [compound 317], for which the IC50 came to 0.22 nM.

Consider `COc1nc(-c2cccc(-c3cccc(-c4cnc(CNC[C@@H]5CCC(=O)N5)c(OC)n4)c3Cl)c2Cl)cnc1CN` [compound 318], for which the half-inhibitory concentration (IC50) is 0.15 nM.

Take `CNc1nc(-c2cccc(-c3cccc(-c4cnc(CN(C)C[C@@H]5CCC(=O)N5)c(NC)n4)c3Cl)c2Cl)cnc1CN(C)C[C@@H]1CCC(=O)N1` [compound 319]: the IC50 was 3.87 nM.

Take `CNc1nc(-c2cccc(-c3cccc(-c4cnc(CNC[C@H]5CCC(=O)N5)c(NC)n4)c3Cl)c2Cl)cnc1CNC[C@H]1CCC(=O)N1` [compound 320]: the half-maximal inhibitory concentration (IC50) turned out to be 3.72 nM.

Take `COc1nc(-c2cccc(-c3cccc(-c4cnc(CN[C@@H]5CCN(S(C)(=O)=O)C5)c(OC)n4)c3Cl)c2Cl)cnc1CN[C@@H]1CCN(S(C)(=O)=O)C1` [compound 321]: the half-inhibitory concentration (IC50) was 0.46 nM.

On to `COc1nc(-c2cccc(-c3cccc(-c4cnc(CN(C)C[C@@H]5CCC(=O)N5)c(OC)n4)c3Cl)c2Cl)cnc1CN(C)CCO` [compound 322], for which the IC50 worked out at 0.23 nM.

Turning to `COc1nc(-c2cccc(-c3cccc(-c4cnc(CN(C)CCO)c(OC)n4)c3Cl)c2Cl)cnc1CNC[C@@H]1CCC(=O)N1` [compound 323], the IC50 came to 0.12 nM.

With `COc1nc(-c2cccc(-c3cccc(-c4cnc(CNC[C@H]5NC(=O)[C@@H]6C[C@H]56)c(OC)n4)c3Cl)c2Cl)cnc1CNC[C@H]1NC(=O)[C@@H]2C[C@H]12` [compound 324], the IC50 came to 0.358 nM.

For `COc1nc(-c2cccc(-c3cccc(-c4cnc(CN(Cc5ccccc5)C[C@@H]5CCC(=O)N5)c(OC)n4)c3Cl)c2Cl)cnc1CNC[C@@H]1CCC(=O)N1` [compound 325], the half-inhibitory concentration (IC50) came to 1.86 nM.

Consider `COc1nc(-c2cccc(-c3cccc(-c4cnc(CNC[C@@H]5C[C@@H](C)C(=O)N5)c(OC)n4)c3Cl)c2Cl)cnc1CNC[C@@H]1C[C@@H](C)C(=O)N1` [compound 326], for which the 50% inhibitory concentration (IC50) was found to be 0.18 nM.

In the case of `COc1nc(-c2cccc(-c3cccc(-c4cnc(CN(C)C[C@@H]5CCC(=O)N5)c(OC)n4)c3Cl)c2Cl)cnc1CN(C)C[C@@H]1CCC(=O)N1` [compound 327], the IC50 came out at 0.238 nM.

For the compound `COc1nc(-c2cccc(-c3cccc(-c4cnc(CN(CC5CC5)C[C@@H]5CCC(=O)N5)c(OC)n4)c3Cl)c2Cl)cnc1CN(CC1CC1)C[C@@H]1CCC(=O)N1` [compound 328], the IC50 was 4.04 nM.

As for `COc1nc(-c2cccc(-c3cccc(-c4cnc(CN(CC5CC5)C[C@@H]5CCC(=O)N5)c(OC)n4)c3Cl)c2Cl)cnc1CNC[C@@H]1CCC(=O)N1` [compound 329], the concentration for half-maximal inhibition (IC50) turned out to be 0.955 nM.

In the case of `COc1nc(-c2cccc(-c3cccc(-c4cnc(CNC[C@@H]5C[C@@H](CC(F)(F)F)C(=O)N5)c(OC)n4)c3Cl)c2Cl)cnc1CNC[C@@H]1C[C@@H](CC(F)(F)F)C(=O)N1` [compound 330], the IC50 was found to be 5.68 nM.

Regarding `COc1nc(-c2cccc(-c3cccc(-c4cnc(CNC[C@@H]5CC6(CC6)C(=O)N5)c(OC)n4)c3Cl)c2Cl)cnc1CNC[C@@H]1CC2(CC2)C(=O)N1` [compound 331], the IC50 came out at 0.669 nM.

On to `COc1nc(-c2cccc(-c3cccc(-c4cnc(CN5[C@@H](C)COC[C@@H]5C)c(OC)n4)c3Cl)c2Cl)cnc1CNC[C@@H]1CCC(=O)N1` [compound 332], for which the IC50 was determined as 0.743 nM.

On to `COc1nc(-c2cccc(-c3cccc(-c4cnc(CN[C@@H]5CCN(C6COC6)C5)c(OC)n4)c3Cl)c2Cl)cnc1CNC[C@@H]1CCC(=O)N1` [compound 333], for which the IC50 turned out to be 0.171 nM.

`COc1nc(-c2cccc(-c3cccc(-c4cnc(CN[C@@H]5CCOC[C@H]5O)c(OC)n4)c3Cl)c2Cl)cnc1CNC[C@@H]1CCC(=O)N1` [compound 334]: the IC50 was determined as 0.246 nM.

For `COc1nc(-c2cccc(-c3cccc(-c4cnc(CN[C@H]5CCOC[C@@H]5O)c(OC)n4)c3Cl)c2Cl)cnc1CNC[C@@H]1CCC(=O)N1` [compound 335], the IC50 was determined as 0.172 nM.

As to `COc1nc(-c2cccc(-c3cccc(-c4cnc(CN[C@H]5COCC[C@@H]5O)c(OC)n4)c3Cl)c2Cl)cnc1CNC[C@@H]1CCC(=O)N1` [compound 336], the half-inhibitory concentration (IC50) is 0.137 nM.

As for `COc1nc(-c2cccc(-c3cccc(-c4cnc(CNC[C@@H]5CCC(=O)N5)c(OC)n4)c3Cl)c2Cl)cnc1CNCc1ccc(S(N)(=O)=O)s1` [compound 337], the half-maximal inhibitory concentration (IC50) worked out at 1.1 nM.

As to `COc1nc(-c2cccc(-c3cccc(-c4cnc(CNC[C@@H]5CCC(=O)N5)c(OC)n4)c3Cl)c2Cl)cnc1CNCc1ncccc1O` [compound 338], the IC50 came to 0.565 nM.

On to `COc1nc(-c2cccc(-c3cccc(-c4cnc(CN[C@@H]5COCC[C@H]5O)c(OC)n4)c3Cl)c2Cl)cnc1CNC[C@@H]1CCC(=O)N1` [compound 339], for which the IC50 turned out to be 0.192 nM.

Consider `COCCNCc1ncc(-c2cccc(-c3cccc(-c4cnc(CNC[C@@H]5CCC(=O)N5)c(OC)n4)c3Cl)c2Cl)nc1OC` [compound 340], for which the concentration for half-maximal inhibition (IC50) worked out at 0.118 nM.

For `COc1nc(-c2cccc(-c3cccc(-c4cnc(CN[C@H]5C[C@@H](CO)C5)c(OC)n4)c3Cl)c2Cl)cnc1CNC[C@@H]1CCC(=O)N1` [compound 341], the IC50 worked out at 0.094 nM.

Regarding `COc1nc(-c2cccc(-c3cccc(-c4cnc(CN[C@H]5C[C@H](O)C5)c(OC)n4)c3Cl)c2Cl)cnc1CNC[C@@H]1CCC(=O)N1` [compound 342], the IC50 came out at 0.107 nM.

Take `COc1nc(-c2cccc(-c3cccc(-c4cnc(CN[C@H]5C[C@@H](O)C5)c(OC)n4)c3Cl)c2Cl)cnc1CNC[C@@H]1CCC(=O)N1` [compound 343]: the IC50 stood at 0.126 nM.

For `COc1nc(-c2cccc(-c3cccc(-c4cnc(CNC[C@H](C)O)c(OC)n4)c3Cl)c2Cl)cnc1CNC[C@@H]1CCC(=O)N1` [compound 344], the half-maximal inhibitory concentration (IC50) was 0.114 nM.

As for `COc1nc(-c2cccc(-c3cccc(-c4cnc(CNC[C@@H](C)O)c(OC)n4)c3Cl)c2Cl)cnc1CNC[C@@H]1CCC(=O)N1` [compound 345], the IC50 was found to be 0.313 nM.

On to `COc1nc(-c2cccc(-c3cccc(-c4cnc(CN[C@@H](C)CO)c(OC)n4)c3Cl)c2Cl)cnc1CNC[C@@H]1CCC(=O)N1` [compound 346], for which the half-inhibitory concentration (IC50) was 0.323 nM.

As to `COc1nc(-c2cccc(-c3cccc(-c4cnc(CN[C@H](C)CO)c(OC)n4)c3Cl)c2Cl)cnc1CNC[C@@H]1CCC(=O)N1` [compound 347], the IC50 was 0.245 nM.

The values are drawn from patent publication US10710986B2, “PD-1/PD-L1 inhibitors” (Gilead Sciences, Inc., priority 2018, dated 2020).
